# Assay results published in patent publication US5382586A, “Aryl (or heteroaryl)piperazinylalkylazole derivatives, their preparation and their application as medicaments” (priority 1991, dated 1995).
# Tests used:
# [1] = system: conditioned avoidance response in male Wistar rats; test: conditioned avoidance response test (inhibition of the conditioned avoidance response; anxiolytic/tranquillising activity); format: in vivo, rat (male Wistar); settings: rat
# Outline: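 Male Wistar rats (200 g) trained over three days in a shuttle box to jump a barrier within 30 s to avoid foot shock (5 mA); only rats meeting a training score threshold used. Compound or vehicle given orally 45 min before testing; suppression of conditioned avoidance recorded.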
# [2] = system: mice, abstinence syndrome induced by cocaine, diazepam, alcohol or nicotine; test: light box/dark box test: inhibition of the abstinence syndrome; format: in vivo, mouse; parameters: Time in box, dark (D) / Latent period L-D: unit not given here
# Protocol: The light box/dark box test described by B. Costall et al. (J. Phar. Pharmacol., 1988, 40: 494-500) is used. The mouse is placed in the light zone of a box divided into two compartments, one brightly illuminated, the light box, and the other with little illumination, the dark box.
# 1) The number of times the mouse stands up on the hind paws in each compartment during a 5 minute period is counted (see Column 1 of Table V).
# 2) The activity in each compartment is given by counting the number of crossings through the squares which form the divisions of each compartment (see Column 2 of Table V).
# 3) The time passed in the dark box during the 5 minute counting period is determined (see Column 3 of Table 5).
# 4) The initial latent period is determined, that is to say the time which elapses after the animal is placed in the light box, at the start of the test, before it enters the dark box (see Column 4 of Table 5).
# 1) Dependency on a given treatment (diazepam, cocaine, alcohol or nicotine) employing daily administration over a period of 7 or 14 days.
# Diazepam: 10 mg/kg i.p. twice per day over a period of 7 days.
# Cocaine: 1 mg/kg i.p. over a period of 14 days.
# Alcohol: Administered at 8% weight/volume in the drinking water over a period of 14 days. Nicotine: 0.1 mg/kg i.p. twice per day over a period of 7 days.
# 3) Other different groups receive, in addition to diazepam, cocaine, alcohol or nicotine, a concomitant treatment with products which are the subject of the present invention and, by way of comparison, with buspirone or ipsapirone.
# The product described and the doses tested were: 4,5-dichloro-2-methyl-1-{4-[4-(2-pyrimidinyl)-1-piperazinyl]-butyl}-1H-imidazole citrate.
# 1 μg/kg p.o. twice per day.
# immobility of mice = test: desperate behaviour test (antidepressant activity); format: in vivo, mouse; settings: i.p.
# Protocol: The desperate behaviour test in mice, described by R. D. Porsolt et al. (Arch. Int. Pharmacodyn. 1977, 229, 327-336), is used.
# The animals are placed for 6 minutes in a cylinder containing water, from which they are not able to escape. The period of immobility between minutes 2 and 5 is determined for groups of 10 mice per dosage tested.
# The product studied is administered i.p. 1 hour before the test. In this test the immobility of the animals is explained as being produced by their depressed state resulting from being faced with an adverse and insoluble situation in a hostile environment such as water.
# In our test imipramine (30 mg/kg; i.p.) was used as reference product.
# [3] = 24 h after stopping alcohol (alone, or with the named product; Ex. 42 at 1 μg/kg p.o. twice per day)
# [4] = 24 h after stopping cocaine (alone, or with the named product; Ex. 42 at 1 μg/kg p.o. twice per day)
# [5] = 24 h after stopping diazepam (alone, or with the named product; Ex. 42 at 1 μg/kg p.o. twice per day)
# [6] = 24 h after stopping nicotine (alone, or with the named product; Ex. 42 at 1 μg/kg p.o. twice per day)
smiles,measurement,setting,value
"Cc1nc(Cl)c(Cl)n1CCCCN1CCN(c2ncccn2)CC1.O=C(O)CC(O)(CC(=O)O)C(=O)O [Example 42, 4,5-dichloro-2-methyl-1-{4-[4-(2-pyrimidinyl)-1-piperazinyl]-butyl}-1H-imidazole citrate]",Activity % (inhibition of the conditioned avoidance response),"[1]; D = 80 mg/kg, p.o., 45 min before test",82%
same,ED50,"[1]; po, 0.75 h",24.5 mg/kg
same,"Activity within 5 min period, dark box (D)",[2]; [3],23
same,"Activity within 5 min period, light box (L)",[2]; [3],97
same,Latent period L-D,[2]; [3],20
same,"Number of times standing erect within 5 min. period, dark box (D)",[2]; [3],17
same,"Number of times standing erect within 5 min. period, light box (L)",[2]; [3],86
same,"Time in box, dark (D)",[2]; [3],26
same,"Activity within 5 min period, dark box (D)",[2]; [4],23
same,"Activity within 5 min period, light box (L)",[2]; [4],92
same,Latent period L-D,[2]; [4],26
same,"Number of times standing erect within 5 min. period, dark box (D)",[2]; [4],20
same,"Number of times standing erect within 5 min. period, light box (L)",[2]; [4],86
same,"Time in box, dark (D)",[2]; [4],30
same,"Activity within 5 min period, dark box (D)",[2]; [5],19
same,"Activity within 5 min period, light box (L)",[2]; [5],96
same,Latent period L-D,[2]; [5],28
same,"Number of times standing erect within 5 min. period, dark box (D)",[2]; [5],17
same,"Number of times standing erect within 5 min. period, light box (L)",[2]; [5],85
same,"Time in box, dark (D)",[2]; [5],36
same,"Activity within 5 min period, dark box (D)",[2]; [6],20
same,"Activity within 5 min period, light box (L)",[2]; [6],102
same,Latent period L-D,[2]; [6],23
same,"Number of times standing erect within 5 min. period, dark box (D)",[2]; [6],18
same,"Number of times standing erect within 5 min. period, light box (L)",[2]; [6],90
same,"Time in box, dark (D)",[2]; [6],29
same,anxiolytic response when the administration is stopped,"[2]; diazepam, cocaine, alcohol or nicotine stopped, 1 μg/kg p.o. twice per day",maintains a significant anxiolytic response
same,inhibition of the abstinence syndrome,"[2]; induced by diazepam, cocaine, alcohol and nicotine, 1 μg/kg p.o. twice per day",inhibits the abstinence syndrome
same,Period of immobility,"immobility of mice; 1 mg/kg, p < 0.05, control 118 s",64 s
same,antidepressant activity (reduction of the period of immobility),immobility of mice; mice,significantly reduces the period of immobility
